Experimental data: ChEMBL document CHEMBL4138146, “A Schmidt rearrangement-mediated synthesis of novel tetrahydro-benzo[1,4]diazepin-5-ones as potential anticancer and antiprotozoal agents” (Eur J Med Chem, 2017)

Assays:
Assay type in all cases: functional
U-251 [1] = assay: Growth inhibition of human U251 cells assessed as cell growth at 10^-5 M incubated for 48 hrs by sulforhodamine B assay relative to control; conditions: U-251, 48 h, read-out: Activity
SR [2] = assay: Growth inhibition of human SR cells assessed as cell growth at 10^-4 M incubated for 48 hrs by sulforhodamine B assay relative to control; conditions: read-out: Activity
NCI/ADR-RES = assay: Growth inhibition of human NCI/ADR-RES cells assessed as cell growth at 10^-6 M incubated for 48 hrs by sulforhodamine B assay relative to control; conditions: read-out: Activity
SF-268 [3] = assay: Growth inhibition of human SF268 cells assessed as cell growth at 10^-4 M incubated for 48 hrs by sulforhodamine B assay relative to control; conditions: SF-268, 48 h, read-out: Activity
OVCAR-8 = assay: Growth inhibition of human OVCAR8 cells assessed as cell growth at 10^-5 M incubated for 48 hrs by sulforhodamine B assay relative to control; conditions: OVCAR-8, 48 h, read-out: Activity
SF-268 [4] = assay: Growth inhibition of human SF268 cells assessed as cell growth at 10^-6 M incubated for 48 hrs by sulforhodamine B assay relative to control; conditions: SF-268, 48 h, read-out: Activity
U-251 [5] = assay: Growth inhibition of human U251 cells assessed as cell growth at 10^-4 M incubated for 48 hrs by sulforhodamine B assay relative to control; conditions: U-251, 48 h, read-out: Activity
A549 = assay: Growth inhibition of human A549/ATCC cells assessed as cell growth at 10^-8 M incubated for 48 hrs by sulforhodamine B assay relative to control; conditions: A549, 48 h, read-out: Activity
T47D = assay: Growth inhibition of human T47D cells assessed as cell growth at 10^-6 M incubated for 48 hrs by sulforhodamine B assay relative to control; conditions: read-out: Activity
SF-539 = assay: Growth inhibition of human SF539 cells assessed as cell growth at 10^-6 M incubated for 48 hrs by sulforhodamine B assay relative to control; conditions: SF-539, 48 h, read-out: Activity
SF-295 = assay: Growth inhibition of human SF295 cells assessed as cell growth at 10^-4 M incubated for 48 hrs by sulforhodamine B assay relative to control; conditions: SF-295, 48 h, read-out: Activity
CCRF-CEM = assay: Growth inhibition of human CCRF-CEM cells assessed as cell growth at 10^-7 M incubated for 48 hrs by sulforhodamine B assay relative to control; conditions: read-out: Activity
MDA-MB-231 [6] = assay: Growth inhibition of human MDA-MB-231 cells assessed as cell growth at 10^-8 M incubated for 48 hrs by sulforhodamine B assay relative to control; conditions: MDA-MB-231, 48 h, read-out: Activity
SK-MEL-28 [7] = assay: Growth inhibition of human SK-MEL-28 cells assessed as cell growth at 10^-7 M incubated for 48 hrs by sulforhodamine B assay relative to control; conditions: SK-MEL-28, 48 h, read-out: Activity
NCI-H322M = assay: Growth inhibition of human NCI-H322M cells assessed as cell growth at 10^-8 M incubated for 48 hrs by sulforhodamine B assay relative to control; conditions: read-out: Activity
LOX IMVI = assay: Growth inhibition of human LOXIMVI cells assessed as cell growth at 10^-7 M incubated for 48 hrs by sulforhodamine B assay relative to control; conditions: read-out: Activity
MDA-MB-435 [8] = assay: Growth inhibition of human MDA-MB-435 cells assessed as cell growth at 10^-5 M incubated for 48 hrs by sulforhodamine B assay relative to control; conditions: MDA-MB-435, 48 h, read-out: Activity
Malme-3M [9] = assay: Growth inhibition of human MALME-3M cells assessed as cell growth at 10^-7 M incubated for 48 hrs by sulforhodamine B assay relative to control; conditions: read-out: Activity
SW-620 = assay: Growth inhibition of human SW620 cells assessed as cell growth at 10^-5 M incubated for 48 hrs by sulforhodamine B assay relative to control; conditions: SW-620, 48 h, read-out: Activity
Malme-3M [10] = assay: Growth inhibition of human MALME-3M cells assessed as cell growth at 10^-5 M incubated for 48 hrs by sulforhodamine B assay relative to control; conditions: read-out: Activity
SR [11] = assay: Growth inhibition of human SR cells assessed as cell growth at 10^-6 M incubated for 48 hrs by sulforhodamine B assay relative to control; conditions: read-out: Activity
HCT-15 = assay: Growth inhibition of human HCT15 cells assessed as cell growth at 10^-8 M incubated for 48 hrs by sulforhodamine B assay relative to control; conditions: HCT-15, 48 h, read-out: Activity
SNB-75 = assay: Growth inhibition of human SNB75 cells assessed as cell growth at 10^-5 M incubated for 48 hrs by sulforhodamine B assay relative to control; conditions: SNB-75, 48 h, read-out: Activity
IGROV-1 = assay: Growth inhibition of human IGROV1 cells assessed as cell growth at 10^-7 M incubated for 48 hrs by sulforhodamine B assay relative to control; conditions: IGROV-1, 48 h, read-out: Activity
K562 = assay: Growth inhibition of human K562 cells assessed as cell growth at 10^-8 M incubated for 48 hrs by sulforhodamine B assay relative to control; conditions: K562, 48 h, read-out: Activity
MDA-MB-435 [12] = assay: Growth inhibition of human MDA-MB-435 cells assessed as cell growth at 10^-8 M incubated for 48 hrs by sulforhodamine B assay relative to control; conditions: MDA-MB-435, 48 h, read-out: Activity
HOP-92 = assay: Growth inhibition of human HOP92 cells assessed as cell growth at 10^-8 M incubated for 48 hrs by sulforhodamine B assay relative to control; conditions: HOP-92, 48 h, read-out: Activity
HCC 2998 = assay: Growth inhibition of human HCC2998 cells assessed as cell growth at 10^-5 M incubated for 48 hrs by sulforhodamine B assay relative to control; conditions: HCC 2998, 48 h, read-out: Activity
SK-MEL-28 [13] = assay: Growth inhibition of human SK-MEL-28 cells assessed as cell growth at 10^-5 M incubated for 48 hrs by sulforhodamine B assay relative to control; conditions: SK-MEL-28, 48 h, read-out: Activity
EKVX = assay: Growth inhibition of human EKVX cells assessed as cell growth at 10^-5 M incubated for 48 hrs by sulforhodamine B assay relative to control; conditions: read-out: Activity
BT-549 = assay: Growth inhibition of human BT549 cells assessed as cell growth at 10^-8 M incubated for 48 hrs by sulforhodamine B assay relative to control; conditions: BT-549, 48 h, read-out: Activity
M14 = assay: Growth inhibition of human M14 cells assessed as cell growth at 10^-7 M incubated for 48 hrs by sulforhodamine B assay relative to control; conditions: M14, 48 h, read-out: Activity
MDA-MB-231 [14] = assay: Growth inhibition of human MDA-MB-231 cells assessed as cell growth at 10^-6 M incubated for 48 hrs by sulforhodamine B assay relative to control; conditions: MDA-MB-231, 48 h, read-out: Activity
DU-145 = assay: Growth inhibition of human DU145 cells assessed as cell growth at 10^-7 M incubated for 48 hrs by sulforhodamine B assay relative to control; conditions: DU-145, 48 h, read-out: Activity

## CCCCOc1nc2ccccc2cc1C1CNC(=O)c2ccccc2N1 (centres undefined)
U-251 [1]
  growth at 10 µM: 12%
SR [2]
  growth at 100 µM: -25%
NCI/ADR-RES
  growth at 1 µM: 70%
SF-268 [3]
  growth at 100 µM: 1%
OVCAR-8
  growth at 10 µM: 12%
SF-268 [4]
  growth at 1 µM: 80%
U-251 [5]
  growth at 100 µM: -77%
A549
  growth at 0.01 µM: 100%
T47D
  growth at 1 µM: 86%
SF-539
  growth at 1 µM: 85%
SF-295
  growth at 100 µM: -69%
CCRF-CEM
  growth at 0.1 µM: 100%
MDA-MB-231 [6]
  growth at 0.01 µM: 98%
SK-MEL-28 [7]
  growth at 0.1 µM: 98%
NCI-H322M
  growth at 0.01 µM: 94%
LOX IMVI
  growth at 0.1 µM: 93%
MDA-MB-435 [8]
  growth at 10 µM: -58%
Malme-3M [9]
  growth at 0.1 µM: 92%
SW-620
  growth at 10 µM: 18%
Malme-3M [10]
  growth at 10 µM: 41%
SR [11]
  growth at 1 µM: 55%
HCT-15
  growth at 0.01 µM: 95%
SNB-75
  growth at 10 µM: 13%
IGROV-1
  growth at 0.1 µM: 92%
K562
  growth at 0.01 µM: 102%
MDA-MB-435 [12]
  growth at 0.01 µM: 95%
HOP-92
  growth at 0.01 µM: 76%
HCC 2998
  growth at 10 µM: 15%
SK-MEL-28 [13]
  growth at 10 µM: 44%
EKVX
  growth at 10 µM: 31%
BT-549
  growth at 0.01 µM: 105%
M14
  growth at 0.1 µM: 91%
MDA-MB-231 [14]
  growth at 1 µM: 85%
DU-145
  growth at 0.1 µM: 101%
